Measurements: patent publication US8865659B2, “Compositions for prevention or treatment of Hepatitis C virus containing ginsenoside Rg3 as an active ingredient” (priority 2012, dated 2014)

Assays:
[1] = test system: Huh 7.5.1 cells infected with JFH-1 virus; experiment: Microscopic identification of virus suppression effect (cell shape, phase contrast microscope); type: cell-based; conditions: 100 μM; for shapes of Huh 7.5.1 cells: JFH-1 infected
Description: About 200,000 Huh 7.5.1 cells were added to a 60×15 mm cell culture dish and every 100 μM of seven ginsenosides (Ro, Re, Rg1, Rg2, Rg3, Rh1, Rh2) per 60×15 mm cell culture dish each was treated. Since it was necessary for ginsenosides in powder formulation to make solutions for the experiments, 50 mM basic concentration solutions for the seven ginsenosides each were prepared and the basic solutions were refrigerated at 4° C. until they were needed.
Non-treatment group (Control), Non-treatment group and DMSO 10 μl treatment group (Control+DMSO 10 μl), JFH-1 virus treatment group (Only JFH-1), JFH-1 virus and DMSO 10 μl treatments group (JFH-1+DMSO 10 μl), JFH-1 virus and Ro 100 uM treatments group (JFH-1+Ro 100 uM), JFH-1 virus and Re 100 uM treatments group (JFH-1+Re 100 uM), JFH-1 virus and Rg1 100 uM treatments group (JFH-1+Rg1 100 uM), JFH-1 virus and Rg2 100 uM treatments group (JFH-1+Rg2 100 uM), JFH-1 virus and Rg3 100 uM treatments group (JFH-1+Rg3 100 uM), JFH-1 virus and Rh1 100 uM treatments group (JFH-1+Rh1 100 uM), JFH-1 virus and Rh2 100 uM treatments group (JFH-1+Rh2 100 uM), JFH-1 virus and Rg1 100 uM treatments group (JFH-1+Rg1 100 uM).
(§1) The experiment was carried out as follow. First, 200,000 Huh 7.5.1 cells were placed in a 60×15 mm cell culture dish. Next day, Japanese Fulminant Hepatitis-1 virus (JFH-1) stock vial which was stored in −70° C. refrigerator was taken out and thawed out in a container filled with ice-water. The culture medium was collected from the cultured 60×15 mm cell culture dish, washed with 1×PBS and collected, again. 1.5 ml of JFH-1 virus solution per 60×15 mm cell culture dish each was added. The dish was shaken to cover the surface sufficiently. The dish was laid in a 5% CO2 incubator at 37° C. for 6 hours and after that, the supernatant was draw out. 1×PBS was spread on the cell surface as slow as possible and after one time washing, cells were collected. 5 ml of cell culture media was added to control and JFH-1 treatments groups. At the last step of virus-infection, 5 ml CM and each […] of ginsenosides which was set to 50 mM concentration were added to the cell culture media. After that, the cell culture media was laid in a 5% CO2 incubator at 37° C. After 72 hours, the following steps were carried out.
As described in the above Example 3, each 100 μM of seven ginsenosides (Ro, Re, Rg1, Rg2, Rg3, Rh1, Rh2) was treated to Huh 7.5.1 cells. After 24 hours and 72 hours, the shapes of Huh 7.5.1 cells were observed using a phase contrast microscope (ECLIPSE TE300, Nicon) of 400× magnifications.

HCV CORE = experiment: Western blotting against HCV CORE in JFH-1 infected Huh 7.5.1 cells; type: cell-based, Hepatitis C virus (JFH-1); conditions: 10 μM, 25 μM and 50 μM
Description: as §1
As described in the above Example 3, the Huh 7.5.1 cells were treated with each 100 μM of seven ginsenosides (Ro, Re, Rg1, Rg2, Rg3, Rh1, Rh2). After 72 hours, a western blotting analysis was carried out for analyzing virus suppression effect against HCV CORE and cleaved PARP.
Specific western blotting analysis carried out was as follow. First, the above described samples were prepared, mixed with a sample buffer in tubes and heated at 100° C. for 10 minutes. The tubes were cooled on ice and centrifuged. The electrophoresis was carried out with the above samples and molecular weight markers, and then they were transferred to a PVDF membrane (hydrophobic). After blocking with 5% skin milk for an hour, each primary antibody was added. After staying overnight at 4° C., washings three times for every 10 minutes were conducted, and the blocking was carried out with 5% skin milk for an hour at the room temperature. After that, each secondary antibody was added, and the reaction for an hour and washing three times for every 10 minutes were conducted. Then, the membrane was stained by 1:1 mix with detection reagents A (Luminol Enhancer solution) and B (Peroxide solution) and developed with X ray film.
To examine the dose-dependent anti-virus effect of ginsenoside Rg3, western blotting analysis against cleaved PARP and HCV CORE were carried out with the samples of ginsenosides Rg3 treatment concentration at 10 μM, 25 μM, 50 μM and 100 μM each.
To examine the dose-dependent anti-virus effect of ginsenoside Rh2, western blotting analysis against cleaved PARP and HCV CORE were carried out with the samples of ginsenosides Rh2 treatment concentration at 10 μM, 25 μM and 50 μM each. […]

[2] = test system: JFH-1 virus infected Huh 7.5.1 cell; experiment: MTT assay, cytotoxicity of ginsenosides on liver cancer cell line; type: cell-based; conditions: 100 μM, 72 hours
Description: MTT assay was conducted to identify cytotoxicity of ginsenosides.
Specifically, the cells (Huh7.5.1) were seeded at the rate of 1×10^4 cells (in 100 μL)/well in 96 well plates, and incubated in 5% CO2 incubator for less than 24 hours. And after the samples were washed with 1×PBS once and treated with the rate of 50 ul JFH-1 virus/well, and replaced in the 5%, CO2 incubator for six hours. After taking out the cell samples from the incubator, the samples were washed with 1×PBS once and replaced in the culturing media comprising 10, 25, 50 and 100 μL concentration of the above stated seven (7) ginsenosides in Example 3, respectively. After the cells were incubated in 5% CO2 incubator for 72 hours, 20 μl of assay reagent, EZ Cytox, was seeded into each well with the care of no bubble producing. And then, the treated cells were incubated in 5% CO2 incubator for 2.5 hours, followed by examining absorbance at 420 nm with Microplate Reader (Molecular Devices, Minn.). DMSO was the solvent used when treating with ginsenoside, and both the control group and the cells infected with JFH-1 group were also treated with the solvent DMSO.

`CC(C)=CCC[C@](C)(O)[C@H]1CC[C@]2(C)[C@@H]1[C@H](O)C[C@@H]1[C@@]3(C)CC[C@H](O[C@@H]4O[C@H](CO)[C@@H](O)[C@H](O)[C@H]4O)C(C)(C)[C@@H]3CC[C@]12C` [ginsenoside Rh2, reference compound] was tested, and the “cell survival under treatment” value [1] was “all cells became extinct”, the “shapes of Huh 7.5.1 cells” value ([1]; 24 hours after treatment) was “No cell were remained due to the apoptosis of all cells” and the “shapes of Huh 7.5.1 cells” value ([1]; 72 hours after treatment) was “No cell were remained due to the apoptosis of all cells”. The “virus suppression effect (HCV CORE), dose dependence” value (HCV CORE) was “dose-dependent manner” and the “cytotoxicity (MTT assay)” value [2] was “cytotoxic effect was shown predominantly”.
